# Measurements from ChEMBL document CHEMBL3632572, “Adenosine/guanosine preferring nucleoside ribohydrolase is a distinct, druggable antitrichomonal target” (Bioorg Med Chem Lett, 2015).
# Activity calls are given as the source filed them. The rule behind the calls is not given here.
# How the values were obtained:
# [1] = Inhibition of Trichomonas vaginalis adenosine-guanosine preferring ribohydrolase after 40 mins
# [2] = Inhibition of Trichomonas vaginalis adenosine-guanosine preferring ribohydrolase after 40 mins in presence of 0.01% triton X-100
# Trichomonas vaginalis = assay: Inhibition of Trichomonas vaginalis uridine ribohydrolase after 40 mins
compound,measurement,setting,value
OC[C@H]1O[C@@H](n2cnc3c(NC4CCCC4)nc(Cl)nc32)[C@H](O)[C@@H]1O,IC50,[1],9.8 µM
same,IC50,[2],11.7 µM
same,inhibition,Trichomonas vaginalis,inactive
O=C1c2c(O)cc(O)cc2OC(c2ccc(O)c(O)c2)C1O (racemic) [TAXIFOLIN],IC50,[1],5.9 µM
same,IC50,[2],12.5 µM
same,inhibition,Trichomonas vaginalis,inactive
O=C1c2c(O)cc(O)cc2O[C@H](c2ccc(O)c(O)c2)[C@H]1O [(+)-TAXIFOLIN],IC50,[1],9.3 µM
same,IC50,[2],34.2 µM
same,inhibition,Trichomonas vaginalis,inactive
COc1ccccc1OCCNCC(O)COc1cccc2[nH]c3ccccc3c12 (stereo not drawn) [CARVEDILOL],IC50,[1],10.4 µM
same,inhibition,Trichomonas vaginalis,inactive
O=c1c(O[C@@H]2O[C@H](CO)[C@H](O)[C@H](O)[C@H]2O)c(-c2ccc(O)c(O)c2)oc2cc(O)cc(O)c12 [HYPEROSIDE],IC50,[1],2.2 µM
same,IC50,[2],4 µM
same,inhibition,Trichomonas vaginalis,inactive
Cc1ccc(NC(=O)c2ccc(CN3CCN(C)CC3)cc2)cc1Nc1nccc(-c2cccnc2)n1 [IMATINIB],IC50,[1],1.8 µM
same,IC50,[2],3.5 µM
same,inhibition,Trichomonas vaginalis,inactive
O=c1c(O[C@@H]2O[C@H](CO)[C@@H](O)[C@H](O)[C@H]2O)c(-c2ccc(O)c(O)c2)oc2cc(O)cc(O)c12 [ISOQUERCETIN],IC50,[1],0.3 µM
same,IC50,[2],0.9 µM
same,inhibition,Trichomonas vaginalis,inactive
C[C@@H]1O[C@@H](OC[C@H]2O[C@@H](Oc3c(-c4ccc(O)c(O)c4)oc4cc(O)cc(O)c4c3=O)[C@H](O)[C@@H](O)[C@@H]2O)[C@H](O)[C@H](O)[C@H]1O [RUTIN],IC50,[1],10.2 µM
same,IC50,[2],17.3 µM
same,inhibition,Trichomonas vaginalis,inactive
